Patent publication US20230393140A1, “BINDING ASSAYS INVOLVING A PLURALITY OF SYNTHETIC COMPOUNDS, TARGETS, AND COUNTER TARGETS” (SRI International, priority 2020, published 2023)
pKd: −log10 of the molar value. Like-named read-outs stand apart in the source and are kept apart here. Marks after values point to notes of the source that are not given here. Numbered stars: 1 amine (or outer) side, 2 acyl side, 3 side chain; on linkers, the order of the positions; unused ones are H or OH. Square brackets hold non-standard residues; d marks the D form. Ends that are not written are not given here. Peptide text beside a SMILES is read from it. * marks the point of attachment. 5FAM = O=C1OC2(c3ccc(O)cc3Oc3cc(O)ccc32)c2ccc(C(=O)*)cc21; NHCH2C6H4(4-CH2CONH2) = NC(=O)Cc1ccc(CN*)cc1; X1 = O=C(Cc1ccc(CN[*:1])cc1)[*:2]

What was measured:
[1] = target: T1, K-Ras (Homo sapiens, UniProt P01116, G12V); assay: MST binding affinity of resynthesized NNP hits to K-Ras; details: for pKd: read-out: KD of K-Ras hits by MST
T1 construct: purchased Cytoskeleton Inc. CS-RS04
How it was run: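 K-Ras G12V was GTP-loaded (EDTA exchange, 750 μM GTP, 2 h at 30° C, then MgCl2) and labeled with maleimide-647 dye. MST was run at room temperature in 20 mM HEPES pH 7.4, 150 mM NaCl, 10 mM MgCl2, 0.05% Tween-20, 1 mM DTT. Incubations lasted 15, 30 and 45 min; triplicate data fitted for affinity.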

[2] = target: T2, cRaf/K-Ras (G12V) PPI (Homo sapiens, UniProt P01116, G12V); assay: K-Ras-cRaf HTRF-based PPI profiling; format: biochemical; details: for HillSlope: curve fit of % binding, K-Ras G12V 30 nM, GST-cRaf 10 nM; for blank corrected HTRF: raw data, compounds without fluorescein;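 as to blank corrected HTRF: background is the signal of wells with all components except cRaf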
T2 construct: b-Kras G12V (GppNHp) (aa 2-169); biotin (b-
Method: In some experimental embodiments, a buffer was added to the assay wells which included […] HEPES pH 7.4, 150 mM NaCl, 5 mM MgCl2, 1 mM DTT, 0.005% NP40, and 1% DMSO. 5 uL of 3×K-Ras protein was then added to the assay wells, followed by the synthetic compounds which were added using acoustic technology (ECHO, Labcyte) followed by thirty minutes incubation at room temperature. Afterwards, 5 uL of 3×cRaf protein was added to the assay wells and 5 uL of detection mix was then added to the assay wells after 30 minutes. The detection mix included Mab anti-GST-Tb cryptate (Cisbio 61GSTTLB) and streptavidin-XL665 (Ex/Em=(337/665; 620) in PHERAstar (BMG Labtech)). HTRF signal was measured […] later.
The data includes raw data (signal-background without cRaf protein but with all other component), % binding (relative to DMSO controls), and curve fits. Curve fits were performed when the activities at the highest concentration of the synthetic compounds were less than 65%. Tables 18A-18B below includes the raw data (e.g., blank corrected HTRF) and Tables 19A-19B includes the % binding.

[3] = test system: biotinylated GST; assay: Interference check with biotinylated GST and detection mix
From the text: Table 20 below provides an interference check on the synthetic compounds using biotinylated GST, which was used with the detection mix to check for compound effect on fluorescence.

[4] = target: T3, K-Ras-Raf interaction (Homo sapiens, UniProt P01116, G12V); assay: K-Ras/Raf inhibition assay (MST competition binding); details: NNP at 1 μM pre-incubated with K-Ras 15 minutes at room temperature, then Raf titration
T3 construct: purchased Cytoskeleton Inc. (K-Ras); Jena Bioscience (Raf-RBD) CS-RS04; PR-305
Method: This was tested on an MST competition binding assay (see FIG. 11A).
Loading was performed according to the following protocol: The 200 μM stock solution of the target protein was diluted to 10 μM in 20 mM HEPES pH 8.0, 150 mM NaCl, 10 mM MgCl2, 1 mM TCEP, 0.05% Tween-20 (total volume 110 μL). 10 μL were set aside for later labeling quality control. EDTA pH 8.0 (stock concentration 10 mM) was added to the protein solution to a final concentration of 80 μM. GTP (stock concentration 50 mM) was added to the protein solution to a final concentration of 750 μM. The solution was incubated at 30° C. for 2 hours (PCR tube) and then placed on ice for 2 minutes. MgCl2 was added to the protein solution to a final concentration of 100 mM. The resulting protein solution was buffer exchanged into the buffer required in the labeling kit for labeling. […] All the other target molecules (TNFα, IL-6, IL-6R and ASGPR) were used as received without any additional treatment.
Loading of K-Ras with the GTP was performed according to the protocol detailed above (Activation of K-Ras by GTP loading). After the GTP loading the resulting protein solution was buffer exchanged into 100 mM HEPES pH 6.5, 5 mM MgCl2, 50 mM NaCl, 1 mM TCEP.

[5] = format: in vitro ADME; details: 17 h
Method: For human plasma stability, lyophilized human plasma was reconstituted in sterile water for injection, aliquoted into 200 uL aliquots and stored frozen at −80 degrees C. prior to the stability studies. For the stability studies three aliquots per NNP were thawed at room temperature. An additional set of three aliquots for a positive control peptide (Angiotensin I) were also thawed. The incubations for the plasma stability were initiated by mixing 2 uL of a 2 mM stock solution of NNP IL6R-87-8 or positive control in DMSO with the 200 uL thawed plasma aliquot. After briefly vortex-mixing, 50 uL zero-time-point samples were removed, mixed with 50 uL of water and 400 uL of acetonitrile and frozen on dry ice until all time point samples had been collected. The samples were incubated at 37 degrees C. with samples removed and water/acetonitrile added at 1 hour, 3 hours, and 17 hours. Proteins were precipitated by centrifuging the samples at 17,000 G, 4 degrees C. for 1 hour. The supernatants were removed and concentrated in a centrifugal vacuum concentrator (GeneVac Genie II) at 45 degrees C. until the volume had been reduced to around 60 uL. […]

[6] = K-Ras, compound with fluorescein on N-term, read-out: KD[nM] in MST (with fluorescein on N-term)
[7] = read-out: KD (nM) [95% conf. int], MST, NNP1 library hit, target K-Ras, one-site binding model

| Compound | Kd [1, 6] [nM] | Kd [1, 7] [nM] | pKd [1] | HillSlope [2] | blank corrected HTRF ([2]; conc. 1.00E−05) | blank corrected HTRF ([2]; conc. 1.11E−06) | blank corrected HTRF ([2]; conc. 3.33E−06) | blank corrected HTRF ([2]; conc. 3.70E−07) | blank corrected HTRF ([2]; conc. 4.12E−08) | blank corrected HTRF ([2]; conc. 4.57E−09) | blank corrected HTRF ([2]; conc. 5.08E−10) | % signal compared to DMSO ([3]; assay conc. 0.000508053 μM) [%] | % signal compared to DMSO ([3]; assay conc. 0.001524158 μM) [%] | % signal compared to DMSO ([3]; assay conc. 0.004572474 μM) [%] | % signal compared to DMSO ([3]; assay conc. 0.013717421 μM) [%] | % signal compared to DMSO ([3]; assay conc. 0.041152263 μM) [%] | % signal compared to DMSO ([3]; assay conc. 0.12345679 μM) [%] | % signal compared to DMSO ([3]; assay conc. 0.37037037 μM) [%] | % signal compared to DMSO ([3]; assay conc. 1.111111111 μM) [%] | % signal compared to DMSO ([3]; assay conc. 3.333333333 μM) [%] | also measured |
| --- | --- | --- | --- | --- | --- | --- | --- | --- | --- | --- | --- | --- | --- | --- | --- | --- | --- | --- | --- | --- | --- |
| CC(C)C[C@@H](NC(=O)[C@@H](Cc1ccc(O)cc1)NC(=O)[C@H]1CCCN1C(=O)[C@@H](CO)NC(=O)Cc1ccc(CNC(=O)CNC(=O)[C@@H](Cc2c[nH]c3ccccc23)NC(=O)[C@@H](CCCNC(=N)N)NC(=O)CNC(=O)[C@H]2CCCN2C(=O)Cc2ccc(CNC(=O)[C@H](C)NC(=O)[C@@H](CCCNC(=N)N)NC(=O)[C@H]3CCCN3C(=O)[C@H](NC(=O)[C@@H](Cc3ccc(O)cc3)NC(=O)Cc3ccc(CNC(=O)[C@H](Cc4ccccc4)NC(=O)[C@@H](CO)NC(=O)[C@@H](CCCNC(=N)N)NC(=O)[C@H]4CCCN4C(=O)CNC(=O)Cc4ccc(CNC(=O)[C@H](C)NC(=O)[C@@H](CCCNC(=N)N)NC(=O)[C@H]5CCCN5C(=O)[C@H](NC(=O)CNC(=O)Cc5ccc(CNC(=O)[C@@H](NC(=O)[C@@H](Cc6ccc(O)cc6)NC(=O)[C@@H](Cc6c[nH]cn6)NC(=O)[C@H]6CCCN6C(=O)[C@@H](Cc6c[nH]c7ccccc67)NC(=O)c6ccc7c(c6)C(=O)OC76c7ccc(O)cc7Oc7cc(O)ccc76)C(C)C)cc5)C(C)C)cc4)cc3)[C@H](C)O)cc2)cc1)C(=O)N[C@@H](C)C(=O)NCc1ccc(CC(N)=O)cc1 [KRAS-1-8] (5FAM-[dW][dP][dH][dY]V[X1]G[dV][dP][dR]A[X1]G[dP][dR][dS]F[X1][dY][dT][dP][dR]A[X1][dP]G[dR][dW]G[X1][dS][dP][dY][dL]A-{NHCH2C6H4(4-CH2CONH2)}) | 44 | 44 | 7.36 | −0.6222 | 7296 | 10835 | 9028 | 12171 | 15230 | 14396 | 13397 | 99.94 | 102.4 | 103 | 98.33 | 87.69 | 97.53 | 93.95 | 81.88 | 68.53 | blank corrected HTRF ([2]; conc. 1.37E−08): 15117; % signal compared to DMSO ([3]; assay conc. 10 μM): 56.45* %; Inhibition of K-Ras-Raf PPI [4]: complete inhibition |
| CC(C)C[C@H](NC(=O)[C@@H](C)NC(=O)[C@@H](CCC(=O)O)NC(=O)[C@H](NC(=O)[C@@H](CCCCN)NC(=O)Cc1ccc(CNC(=O)[C@H](C)NC(=O)[C@@H](CCCNC(=N)N)NC(=O)[C@H]2CCCN2C(=O)[C@H](NC(=O)CNC(=O)Cc2ccc(CNC(=O)[C@H](Cc3ccccc3)NC(=O)[C@@H](CO)NC(=O)[C@@H](CCC(=O)O)NC(=O)[C@H]3CCCN3C(=O)[C@@H](CC(C)C)NC(=O)c3ccc4c(c3)C(=O)OC43c4ccc(O)cc4Oc4cc(O)ccc43)cc2)C(C)C)cc1)[C@H](C)O)C(=O)NCc1ccc(CC(=O)N[C@H](Cc2ccc(O)cc2)C(=O)N[C@@H](C(=O)N2CCC[C@@H]2C(=O)N[C@H](CCCNC(=N)N)C(=O)N[C@@H](C)C(=O)NCc2ccc(CC(=O)N3CCC[C@@H]3C(=O)NCC(=O)N[C@H](CCCNC(=N)N)C(=O)N[C@H](Cc3c[nH]c4ccccc34)C(=O)NCC(=O)NCc3ccc(CC(=O)NCC(=O)N[C@H](Cc4c[nH]c5ccccc45)C(=O)N[C@H](Cc4c[nH]cn4)C(=O)N[C@H](CCCNC(=N)N)C(=O)N[C@@H](C)C(=O)NCc4ccc(CC(N)=O)cc4)cc3)cc2)[C@H](C)O)cc1 [KRAS-1-13] (5FAM-[dL][dP][dE][dS]F[X1]G[dV][dP][dR]A[X1][dK][dT][dE][dA]L[X1][dY][dT][dP][dR]A[X1][dP]G[dR][dW]G[X1]G[dW][dH][dR]A-{NHCH2C6H4(4-CH2CONH2)}) | 30 | 30 | 7.52 | −0.821 | 3798 | 8379 | 3957 | 9542 | 14025 | 13413 | 5044 | 101.8 | 103.1 | 102.8 | 101.9 | 102.1 | 100.3 | 100.4 | 94.53 | 80.42 | blank corrected HTRF ([2]; conc. 1.52E−09): 13665; % signal compared to DMSO ([3]; assay conc. 10 μM): 62.38* %; Inhibition of K-Ras-Raf PPI [4]: partial inhibition |
| DRVYIHPFHL [Angiotensin I, reference compound] | – | – | – | – | – | – | – | – | – | – | – | – | – | – | – | – | – | – | – | – | Stability in human plasma [5]: completely degraded within four hours |
